Measurements as given in PubChem BioAssay (NCI).
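How tested: cells in 96-well plates exposed to compound for 48 hours at five concentrations. GI50 is the concentration that inhibits growth by half. TGI is the concentration that stops growth completely.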

How the values were obtained:
Experiment in all cases: growth of human tumour cells (NCI), 48 h
[1] = test system: 786-0 renal
[2] = test system: A498 renal
[3] = test system: A549 NSCLC
[4] = test system: ACHN renal
[5] = test system: BT-549 breast
[6] = test system: CAKI-1 renal
[7] = test system: CCRF-CEM leukemia
[8] = test system: COLO 205 colon
[9] = test system: DU-145 prostate
[10] = test system: EKVX NSCLC
[11] = test system: HCC-2998 colon
[12] = test system: HCT-116 colon
[13] = test system: HCT-15 colon
[14] = test system: HL-60(TB) leukemia
[15] = test system: HOP-62 NSCLC
[16] = test system: HS 578T breast
[17] = test system: HT29 colon
[18] = test system: IGROV1 ovarian
[19] = test system: K-562 leukemia
[20] = test system: KM12 colon
[21] = test system: LOX IMVI melanoma
[22] = test system: MCF7 breast
[23] = test system: MDA-MB-231 breast
[24] = test system: MOLT-4 leukemia
[25] = test system: NCI-H226 lung
[26] = test system: NCI-H23 lung
[27] = test system: NCI-H460 lung
[28] = test system: NCI-H522 lung
[29] = test system: NCI/ADR-RES ovarian
[30] = test system: OVCAR-3 ovarian
[31] = test system: OVCAR-4 ovarian
[32] = test system: OVCAR-5 ovarian
[33] = test system: OVCAR-8 ovarian
[34] = test system: PC-3 prostate
[35] = test system: RPMI-8226 leukemia
[36] = test system: RXF 393 renal
[37] = test system: SF-268 CNS
[38] = test system: SF-295 CNS
[39] = test system: SF-539 CNS
[40] = test system: SK-MEL-28 melanoma
[41] = test system: SK-MEL-5 melanoma
[42] = test system: SK-OV-3 ovarian
[43] = test system: SN12C renal
[44] = test system: SNB-19 CNS
[45] = test system: SNB-75 CNS
[46] = test system: SR leukemia
[47] = test system: SW-620 colon
[48] = test system: T-47D breast
[49] = test system: TK-10 renal
[50] = test system: U251 CNS
[51] = test system: UACC-257 melanoma
[52] = test system: UACC-62 melanoma
[53] = test system: UO-31 renal

Q: How did the GI50 [1] turn out when CC(=O)O[C@H]1C(=O)[C@@]2(C)[C@H]([C@H](OC(=O)c3ccccc3)[C@]3(O)C[C@H](OC(=O)[C@H](OC(=O)CCC(=O)OC4CCC(S/N=C(N)/N=C(\N)N(C)C)CC4)[C@@H](NC(=O)c4ccccc4)c4ccccc4)C(C)=C1C3(C)C)[C@]1(OC(C)=O)CO[C@@H]1C[C@@H]2O (stereo not given in full) was run?
A: 115 nM

Q: What about the TGI [1] of the same compound?
A: > 50000 nM

Q: What about the GI50 [2] of the same compound?
A: 14.8 nM

Q: What about the TGI [2] of the same compound?
A: > 50000 nM

Q: And the GI50 [3]?
A: 8.4 nM

Q: What about the TGI [3] of the same compound?
A: > 50000 nM

Q: And the GI50 [4]?
A: 110 nM

Q: What about the TGI [4] of the same compound?
A: > 50000 nM

Q: What about the GI50 [5] of the same compound?
A: 21.9 nM

Q: What about the TGI [5] of the same compound?
A: > 50000 nM

Q: What about the GI50 [6] of the same compound?
A: 1270 nM

Q: And the TGI [6]?
A: > 50000 nM

Q: And the GI50 [7]?
A: 15.5 nM

Q: What about the TGI [7] of the same compound?
A: > 50000 nM

Q: And the GI50 [8]?
A: 9.52 nM

Q: And the TGI [8]?
A: 40.6 nM

Q: And the GI50 [9]?
A: 13.5 nM

Q: What about the TGI [9] of the same compound?
A: > 50000 nM

Q: What about the GI50 [10] of the same compound?
A: 26.9 nM

Q: And the TGI [10]?
A: > 50000 nM

Q: And the GI50 [11]?
A: 14.7 nM

Q: What about the TGI [11] of the same compound?
A: 727 nM

Q: What about the GI50 [12] of the same compound?
A: < 5 nM

Q: What about the TGI [12] of the same compound?
A: > 50000 nM

Q: And the GI50 [13]?
A: 269 nM

Q: And the TGI [13]?
A: > 50000 nM

Q: And the GI50 [14]?
A: 10.1 nM

Q: What about the TGI [14] of the same compound?
A: 23.4 nM

Q: And the GI50 [15]?
A: 13.3 nM

Q: And the TGI [15]?
A: > 50000 nM

Q: What about the GI50 [16] of the same compound?
A: 10 nM

Q: And the GI50 [17]?
A: < 5 nM

Q: What about the TGI [17] of the same compound?
A: > 50000 nM

Q: And the GI50 [18]?
A: 113 nM

Q: And the TGI [18]?
A: > 50000 nM

Q: And the GI50 [19]?
A: 6.92 nM

Q: And the TGI [19]?
A: > 50000 nM

Q: What about the GI50 [20] of the same compound?
A: 10.6 nM

Q: What about the TGI [20] of the same compound?
A: > 50000 nM

Q: What about the GI50 [21] of the same compound?
A: 7.48 nM

Q: What about the TGI [21] of the same compound?
A: > 50000 nM

Q: What about the GI50 [22] of the same compound?
A: < 5 nM

Q: What about the TGI [22] of the same compound?
A: > 50000 nM

Q: What about the GI50 [23] of the same compound?
A: 24.9 nM

Q: And the TGI [23]?
A: > 31400 nM

Q: What about the GI50 [24] of the same compound?
A: 15.4 nM

Q: And the TGI [24]?
A: > 50000 nM

Q: What about the GI50 [25] of the same compound?
A: 23400 nM

Q: What about the TGI [25] of the same compound?
A: > 50000 nM

Q: And the GI50 [26]?
A: 16.6 nM

Q: And the TGI [26]?
A: > 50000 nM

Q: What about the GI50 [27] of the same compound?
A: 6.9 nM

Q: And the TGI [27]?
A: > 27700 nM

Q: What about the GI50 [28] of the same compound?
A: 5.53 nM

Q: What about the TGI [28] of the same compound?
A: 37.3 nM

Q: What about the GI50 [29] of the same compound?
A: 1820 nM

Q: What about the TGI [29] of the same compound?
A: > 24400 nM

Q: And the GI50 [30]?
A: 11.2 nM

Q: And the TGI [30]?
A: > 50000 nM

Q: And the GI50 [31]?
A: 44.4 nM

Q: And the TGI [31]?
A: > 50000 nM

Q: And the GI50 [32]?
A: 27.2 nM

Q: And the TGI [32]?
A: > 50000 nM

Q: And the GI50 [33]?
A: 22.1 nM

Q: And the TGI [33]?
A: > 50000 nM

Q: And the GI50 [34]?
A: 15.5 nM

Q: What about the TGI [34] of the same compound?
A: > 50000 nM

Q: What about the GI50 [35] of the same compound?
A: 6.05 nM

Q: And the TGI [35]?
A: > 43500 nM

Q: What about the GI50 [36] of the same compound?
A: 13.5 nM

Q: And the TGI [36]?
A: > 50000 nM

Q: What about the GI50 [37] of the same compound?
A: 21.2 nM

Q: What about the TGI [37] of the same compound?
A: > 50000 nM

Q: And the GI50 [38]?
A: 11.6 nM

Q: And the TGI [38]?
A: 81.8 nM

Q: What about the GI50 [39] of the same compound?
A: 8.47 nM

Q: And the TGI [39]?
A: 25.5 nM

Q: What about the GI50 [40] of the same compound?
A: 8570 nM

Q: What about the TGI [40] of the same compound?
A: > 50000 nM

Q: And the GI50 [41]?
A: 17.6 nM

Q: And the TGI [41]?
A: 10500 nM

Q: What about the GI50 [42] of the same compound?
A: 14.4 nM

Q: What about the TGI [42] of the same compound?
A: > 50000 nM

Q: What about the GI50 [43] of the same compound?
A: 32.5 nM

Q: What about the TGI [43] of the same compound?
A: > 50000 nM

Q: And the GI50 [44]?
A: 20.5 nM

Q: What about the TGI [44] of the same compound?
A: > 50000 nM

Q: And the GI50 [45]?
A: < 5 nM

Q: What about the TGI [45] of the same compound?
A: 17.4 nM

Q: And the GI50 [46]?
A: 6.31 nM

Q: What about the TGI [46] of the same compound?
A: > 50000 nM

Q: What about the GI50 [47] of the same compound?
A: 11.9 nM

Q: What about the TGI [47] of the same compound?
A: > 50000 nM

Q: And the GI50 [48]?
A: 13.9 nM

Q: What about the TGI [48] of the same compound?
A: > 50000 nM

Q: And the GI50 [49]?
A: 20.5 nM

Q: What about the TGI [49] of the same compound?
A: 1650 nM

Q: What about the GI50 [50] of the same compound?
A: 8.15 nM

Q: And the TGI [50]?
A: > 50000 nM

Q: And the GI50 [51]?
A: 84.6 nM

Q: And the TGI [51]?
A: > 50000 nM

Q: What about the GI50 [52] of the same compound?
A: < 15.5 nM

Q: And the TGI [52]?
A: > 25500 nM

Q: And the GI50 [53]?
A: 619 nM

Q: What about the TGI [53] of the same compound?
A: > 50000 nM
